{"source": "patent US10759754B2", "about": "“Aminobenzoic acid derivatives for use as anti-inflammatory agents, anti-metastatic agents and/or anticancer agents” (3R VALO, S.E.C., priority 2016, dated 2020)", "key": {"[1]": {"tested_on": "macrophage-like J774A.1 cells", "assay": "IFNγ/TNFα-induced NO production (Griess) in J774A.1 cells", "type": "cell-based, murine", "details": "pretreatment then IFNγ and TNFα", "description": "(§1) Evaluation of NO and Urea production by chemical methods. The MB49-I cells and the J774A.1 cells (25×10^3 cells/well) were grown and pretreated, as indicated, with various anti-inflammatory derivatives, precursors and mono-functional derivatives for a period of 3 h. Afterwards the cells were washed twice with 10% FBS RPMI-1640 and then activated to produce NO for a period of 24 h with cytokines INFγ and TNFα. NO production was measured using the Griess reagent method as previously described.^27 This method involves the detection of nitrite ions (NO2^−) formed by the spontaneous oxidation of NO under physiological conditions. According the manufacture procedure (Life Technologies; # G-7921), equal volumes of sulfanilic acid and N-(1-naphthyl)ethylenediamine are mixed together to form the Griess reagent. In the presence of NO2^−, sulfanilic acid is converted to a diazonium salt, which in turn is coupled to N-(1-naphthyl)ethylenediamine to produce a pink coloration that is measured with a spectrophotometer (Biotek, synergy HT) at 548 nm. In the same manner, urea synthesis through arginase-1 activity was measured using commercially available kit."}, "[2]": {"tested_on": "UBC cell line MB49-I", "assay": "IFNγ/TNFα-induced NO production (Griess) in MB49-I cells", "type": "cell-based, murine", "details": "10 and 50 μM", "description": "as §1"}, "[3]": {"tested_on": "MB49 cells", "assay": "Relative cell viability of MB49 cells 24-hour post treatment", "type": "cell-based, murine", "details": "3 h treatment, 0-50 μM", "description": "(§2) Evaluation of cell proliferation by the MTT assay. […] Cells were pretreated for a period of 3 h with vehicle (DMSO) or derivatives 1 and 1A at 0, 10, 25, 37.5, and 50 μM, and then incubated for 24 h in the absence or the presence of INFγ and TNFα. At the end of the culture period, 10 μL of 5 mg/mL methylthiazolyldiphenyl-tetrazolium bromide (MTT) solution was added to each well. After a 3-h incubation period with MTT reagent, 100 μL of MTT solubilization buffer (10% SDS in 10 mM HCl) was added and plates were placed overnight in the cell incubator before absorbance measure. The optical density was read at 580 nm using the Microplate Reader Manager (from Bio-Rad Laboratories)."}, "[4]": {"tested_on": "MB49-I cells", "assay": "Relative cell viability of MB49-I cells 24-hour post treatment", "type": "cell-based, murine", "details": "3 h treatment, 0-50 μM", "description": "as §2"}, "[5]": {"tested_on": "TNFα/NFκB signaling pathway", "assay": "Western blot of TNFα/NFκB signaling in MB49-I cells", "type": "cell-based, murine", "details": "doses as lower as 10 μM", "description": "Cell signaling studies: THP1-derived human macrophages (750×10^3 cells/mL) and MB49-I cells (500×10^3 cells/mL) were pretreated for 30 min with vehicle (DMSO), compounds 4 and 5, at 10, 25 or 50 μM; and then washed and recovered immediately (t=0 min) or after 30 min of activation with 50 U/mL IFNγ, 25 ng/mL IL6, or 10 ng/mL TNFα. Cell lysates were prepared and analyzed by immunoblotting as described.^21-23,25 Briefly, protein samples were resolved by SDS-PAGE under reducing conditions and transferred onto a PVDF membrane. Blots were first probed with rabbit polyclonal antibodies against phospho-STAT1 (pSTAT1), pSTAT3, or p-IκB (all at 1:2000) overnight at 4° C. Blots were then incubated with HRP-conjugated goat anti-rabbit IgG Ab (1:3000) for 1 h at room temperature. The same blots were stripped and then probed with anti-STAT1 or anti-STAT3 Abs (both at 1:1000). In both cases, probed molecules were visualized using an enhancement chemiluminescence detection kit (Thermo Fisher Scientific)."}, "[6]": {"tested_on": "human UBC T24 cells", "assay": "Motility (scratch) assay, IL6-induced, in T24 cells", "type": "cell-based", "details": "30 μM"}, "[7]": {"tested_on": "C57Bl/6J mice", "assay": "Acute toxicity study with episodic i.p. injections in C57Bl/6J mice", "type": "in vivo"}, "[8]": {"tested_on": "MB49-I tumors", "assay": "Ectopic UBC model, MB49-I tumors implanted in the flank of male mice", "type": "in vivo", "description": "(§3) Ectopic UBC model. Male C57BL/6J mice (6-8 weeks old), each weighing 15-18 g, were used for the experiments (supplied by Charles River). The mice were housed with free access to food and water on a 12:12 h light:dark cycle with the room temperature maintained at 21° C. MB49 cells, MB49-I cells, and iNOS-deficient MB49-I cells ([…] in 100 μL PBS) were injected subcutaneously (s.c.) into the right flank of the mice. Growth rates of the s.c. tumors were monitored. The size of tumors was determined every 3 days for 24-28 days using a digital caliper and by measuring luciferin luminescence at days 15 and 25 using the IVIS imaging system. A blinded observer measured tumor length and width. The volume of the tumor was calculated from the formula: Length×width2×0.52, where length and width were tumor diameters measured with calipers in mutually perpendicular directions. At a tumor size of approximately 10 mm^3 the mice were divided into different groups. A control group received PBS as treatment. As indicated, other groups were treated at different doses (90, 150 or 300 μM) with an intraperitoneal (i.p.) injection of compounds 4 or 8 every 3-4 days for 18-20 days.^24,27"}, "[9]": {"tested_on": "MB49 tumors", "assay": "Ectopic UBC model, non-muscle invasive MB49 tumors in male mice", "type": "in vivo", "details": "i.p. 90 and 150 μM", "description": "as §3"}, "[10]": {"tested_on": "MB49-I cells", "assay": "LPS/IFNγ-induced NO production in MB49-I cells", "type": "cell-based, murine", "details": "compound 4 at 30 μM, compound 12 at 10, 20, 37.5 and 50 μM", "description": "as §1, with “Afterwards the cells were washed twice with 10% FBS RPMI-1640 and then activated to produce NO for a period of 24 h with cytokines INFγ and TNFα.” left out"}, "[11]": {"tested_on": "IκB / NFκB signaling pathway", "assay": "Western blot of phosphorylated IκB in LPS-activated RAW 264.7 cells", "type": "cell-based, murine", "details": "90 min pretreatment at 20 and 37.5 μM, 100 ng/mL LPS 15 min"}, "[12]": {"details": "i.p. 0, 90, 150, 300 μM during 3 weeks"}}, "note": "“Also recorded” adds a separate entry of the source.", "data": [{"smiles": "CC(C)(C)OC(=O)NNC(=O)c1ccc(N2C(=O)C=CC2=O)cc1", "note": "[Compound 4, N′-[4-(2,5-dioxo-2,5-dihydro-pyrrol-1-yl)-benzoyl]-hydrazine carboxylic acid tert-butyl ester]", "values": [{"measurement": "combined IFNγ/TNFα-induced NO synthesis", "setting": "[1]", "value": "effective in reducing; also recorded: efficiently inhibited"}, {"measurement": "combined IFNγ/TNFα-induced NO synthesis", "setting": "[2]", "value": "efficiently inhibited"}, {"measurement": "relative cell viability / cell survival", "setting": "[3]", "value": "stopping cell proliferation"}, {"measurement": "relative cell viability / cell survival", "setting": "[4]", "value": "stopping cell proliferation"}, {"measurement": "TNFα/NFκB signaling pathway (Western blot)", "setting": "[5]", "value": "inhibit; also recorded: efficiently inhibited"}, {"measurement": "IL6-induced motility (scratch assay)", "setting": "[6]", "value": "inhibit; also recorded: efficiently inhibited"}, {"measurement": "tolerability in mice", "setting": "[7]; concentrations up to 300 μM", "value": "well tolerated"}, {"measurement": "hematocrit", "setting": "[7]; [12]", "value": "no obvious effect"}, {"measurement": "normal development and viability", "setting": "[7]; [12]", "value": "no obvious effect"}, {"measurement": "organs weight", "setting": "[7]; [12]", "value": "no obvious effect"}, {"measurement": "liver histological analysis (hepatocellular injury, inflammation, fibrosis, steatosis)", "setting": "[7]; i.p. up to 300 μM during 3 weeks", "value": "no evidence of toxicity; also recorded: does not induce features of liver dysfunction"}, {"measurement": "histological examination of lung specimens", "setting": "[8]; i.p. 150 μM", "value": "no metastatic foci"}, {"measurement": "number of lung metastases", "setting": "[8]; i.p. 150 μM", "value": "significant decrease; also recorded: significantly reduce"}, {"measurement": "size of subcutaneously implanted MB49-I tumors", "setting": "[8]; i.p. 150 μM", "value": "significantly reduce"}, {"measurement": "tumor development of MB49-I cells subcutaneously implanted", "setting": "[8]; i.p. 150 μM", "value": "significant decrease; also recorded: significantly affects"}, {"measurement": "tumor volume of muscle-invasive MB49-I tumors", "setting": "[8]; i.p. 150 μM during 18 days, tumors recovered day 20", "value": "anti-proliferative activity"}, {"measurement": "size of subcutaneously implanted MB49 tumors", "setting": "[9]", "value": "significant reduction; also recorded: significantly reduce"}, {"measurement": "LPS/IFNγ-induced NO synthesis", "setting": "[10]", "value": "inhibitory effect"}, {"measurement": "LPS-activated NFκB signaling pathway (ratio p-IkB/IkB)", "setting": "[11]", "value": "efficient to inhibit"}]}]}
